Patent US7094770B2, “3′-or 2′-hydroxymethyl substituted nucleoside derivatives for treatment of hepatitis virus infections” (Pharmasset, Ltd., priority 2000, dated 2006)
pEC50: −log10 of the molar value. Where two headings read alike, the source gives them in different places.

Assays:
[1] = Cytotoxicity in PBM cells; format: cell-based, human; conditions: human
Method: (§1) We also perform toxicity assays by measuring the inhibition of uptake of […] dye by treated cells. These assays are done in 96 well plates. After the standard 10 day treatment regimen medium is removed and PBS containing MTS dye added to each well. After a 2 hour incubation the absorbance of the metabolized product is measured at 490 nm.
(§2) Human PBM cells from healthy donors, seronegative for HIV-1 and HBV, are isolated by a single-step Ficoll-Hypaque discontinuous gradient centrifugation and propagated as described previously (Schinazi et al., Antimicrobial Agents Chemother., 1990, 34:1061; 1992, 36:2423; 1993, 37:875). Compounds are screened for activity against HIV-1 and cytotoxicity by a protocol reported previously reported by Schinazi, et al. The prototype strain of HIV-1LAI obtained from the Centers for Disease Control and Prevention, Atlanta, Ga., is used as the standard virus for the studies in human PBM cells.

[2] = system: HIV-1; experiment: Anti-HIV evaluation in human PBM cells; format: cell-based; conditions: for pEC50: HIV-1
From the text: as §2

[3] = system: HBV; experiment: Cell culture assay for anti-HBV activity (2.2.15 cells, HBV DNA in medium by Southern blot); format: cell-based, Hepatitis B virus; conditions: for pEC50: read-out: Anti-HBV EC50; for Antiviral activity (in words): virus not named
From the text: We follow the protocol described by Korba and Gerin(Antiviral Res., 1992, 19:55) and Pai et al. (Antimicrobial Agents Chemother., 1996, 40:380) which is used widely in the field. The HepG 2 2.2.15 cells contain a stably integrated HBV genome, the transcript from which serves as a template for viral replication. The cells produce virions which are elaborated into the medium. The production of the virion DNA is monitored by analysis of medium by Southern blotting. Drugs which inhibit viral replication reduce the levels of virion DNA in the medium, relative to controls.
Confluent cells in 24 well tissue culture dishes are treated with test compounds starting at 1 nM and extending logarithmically to 10 μM (1 nM, 3.2, 10 nM, 32, 100 nM, 1 μM, 10 μM […]). Medium is changed […] every 3 days and DNA extracted from the 3, 6, and […] day samples. The virions are concentrated by polyethylene glycol precipitation (equal volume addition of PEG 8000). After cooling on ice the samples are spun and the pellets treated with SDS and Proteinase K followed by Phenol:Chloroform extraction and ethanol precipitation of the DNA. The DNA is analyzed for HBV sequences by Southern hybridization. The probe used for the analysis is a ^32P labeled Eco RI fragment from the HBV clone described by Korba et al. 3TC is used as a positive control compound with known activity against HBV.
System: The most widely used system for the study of anti-HBV agents is the hepatoma cell culture system with the HBV genome. These cells are designated as the 2.2.15 cells, AD38 cells and AD79 cells. The 2.2.15 cells were generated by the transfection of the human hepatoma cells—HepG2 with HBV DNA. (Sells, et al., Proc. Natl. Acad. Sci. USA 84:1005–1009, 1987) HBV viral replication takes place in these cells. The HBV replication can be monitored intracellularly as well as extracellularly in these cells.
Assay for Anti-HBV agents: 2.215 cells are grown in multi-well dishes in RPMI medium supplemented with 4% fetal bovine serum. After 3 to 4 days of growing the cells, they are treated with varying concentrations of the test compound(s). The test compounds are dissolved in DMSO or sterile water. Cultures without the addition of the test compounds serve as controls. The addition of the test compound(s) is repeated at 3-day intervals. The medium is changed and replaced with appropriate concentration of the test compound. At the end of the 9-day treatment period, the culture medium is harvested and processed for viral DNA. The viral DNA thus obtained is analyzed by Southern blot analysis. After the Southern transfer, the blot is subjected to hybridization to an HBV specific probe to detect HBV DNA. The hybriodization is carried out overnight. After the hybridization, free probe is removed by washing of the blots. The specific hybridization is visualized by autoradiography. Inhibition produced by the test compound is calculated with reference to the levels of HBV DNA in the control samples.

[4] = Cytotoxicity in CEM cells; format: cell-based; conditions: human
Method: as §1

[5] = Cytotoxicity in Vero cells; format: cell-based; conditions: African green monkey
Method: as §1

[6] = Cytotoxicity in HepG2 cells; format: cell-based; conditions: human
Method: as §1

[7] = system: HIV; conditions: literature; cited from earlier work
[8] = system: PBM cells; experiment: Cytotoxicity in PBM cells; format: cell-based, human
Method: as §1, §2

[9] = Human immunodeficiency virus 1, PBMC

Structure (SMILES)	IC50 [1]	pEC50 [2]	pEC50 [3]	Antiviral activity (in words) [3]	IC50 at 10 day [4]	IC50 at 10 day [5]	pEC50 [2, 9]	EC50 ([3]; Hepatitis B virus, read-out: Anti-HBV EC50 (μM))	pEC50 ([3]; Hepatitis B virus)	Inhibition of HIV replication (in words) [2]	Inhibition of HBV replication (in words) [3]	IC50 at 10 day [6]	Activity against HIV (in words) [7]	IC50 [8]
Cc1cn(C2CC(CO)C(CO)O2)c(=O)[nH]c1=O (stereo not drawn) [Compound 20 (Series 1)]	> 100 µM	6.10	6.64	moderate activity	> 100 µM	> 100 µM								
CCOP(=O)(CCC1=NOC(n2cc(C)c(=O)[nH]c2=O)C1)OCC (stereo not drawn) [Compound 33 (Series 2)]	> 100 µM				> 100 µM	> 100 µM	< 4.00	> 10 µM						
CC1=CC(C2CC(CO)N(C)O2)C(=O)NC1=O (stereo not drawn) [Compound 5 (Series 2)]	> 100 µM						< 4.00		< 5.00					
Nc1ccn(C2OC(CO)C(CO)C2F)c(=O)n1 (stereo not drawn) [Compound 7 (Series 2)]	48.8 µM				5.1 µM	56 µM	5.59		7.40	potent inhibitors	potent inhibitors	> 100 µM		
Cc1cn(C2CC(CCl)C(CO)O2)c(=O)[nH]c1=O (stereo not drawn) [Compound 3 (Series 1)]	> 100 µM					> 100 µM	< 4.00		< 5.00					
CCCCN(O)C1C(CO)OC(n2cc(C)c(=O)[nH]c2=O)C1F (stereo not drawn) [Compound 71 (Series 2)]	13 µM			moderate activities	30.1 µM	68.5 µM	4.09		> 5.00					
Cc1cn(C2CC3COCC3O2)c(=O)[nH]c1=O (stereo not drawn) [Compound 1 (Series 1)]	> 100 µM					> 100 µM	< 4.00		< 5.00					
Cc1cn(C2OC(CO)C(CO)C2F)c(=O)[nH]c1=O (stereo not drawn) [Compound 1 (Series 2)]	> 100 µM						< 4.00		< 5.00					
Cc1cn(C2OC(CO)C(C)C2F)c(=O)[nH]c1=O (stereo not drawn) [Compound 22 (Series 2)]	> 100 µM				> 100 µM	> 100 µM	< 4.00		< 5.00					
Nc1ncnc2c1ncn2[C@H]1C[C@H](CO)[C@@H](CO)O1 [2′,3′-dideoxy-3′-hydroxymethyl-adenosine]													good activity	
Cc1cn(C2OC(CO)C(N(C)O)[C@@H]2F)c(=O)[nH]c1=O (stereo partly drawn) [Compound 55 (Series 2)]	> 100 µM				> 100 µM	> 100 µM	4.17		< 5.00					
CC1C(CO)OC(n2ccc(N)nc2=O)C1F (stereo not drawn) [Compound 20 (Series 2)]	> 100 µM				> 100 µM	> 100 µM	< 4.00		< 5.00	potent inhibitors	potent inhibitors			
CC1C(CO)OC(n2cc(F)c(N)nc2=O)C1F (stereo not drawn) [Compound 21 (Series 2)]	> 100 µM				> 100 µM	> 100 µM	< 4.00		< 5.00					
CNC1C(CO)OC(n2ccc(=O)[nH]c2=O)C1F (stereo not drawn) [Compound 69 (Series 2)]	> 100 µM				> 100 µM	> 100 µM	< 4.00		< 5.00					
CN1OC(n2ccc(N)nc2=O)CC1CO (stereo not drawn) [Compound 39 (Series 2)]	> 100 µM				> 100 µM	> 100 µM	< 4.00		< 5.00					
Cc1cn(C2OC(CO)C(CO)C2F)c(=O)nc1N (stereo not drawn) [Compound 2 (Series 2)]	> 100 µM					> 100 µM	< 4.00		< 5.00					
Cc1cn(C2OC(CO)C(CO)C2F)c(=O)[nH]c1=O (stereo not drawn) [Compound 12 (Series 2)]		< 4.00	> 5.00	moderate activities	> 100 µM	> 100 µM								> 100 µM
Cc1cn(C2CC(CO)=NO2)c(=O)[nH]c1=O (stereo not drawn) [Compound 28 (Series 2)]	> 100 µM				> 100 µM	> 100 µM	< 4.00		< 5.00					
O=c1ccn(C2OC(CO)C(CO)C2F)c(=O)[nH]1 (stereo not drawn) [Compound 13 (Series 2)]	> 100 µM				> 100 µM	> 100 µM	< 4.00		< 5.00					
Nc1ccn(C2OC(CO)C(CCO)C2F)c(=O)n1 (stereo not drawn) [Compound 24 (Series 2)]	> 100 µM				> 100 µM	> 100 µM	< 4.00		< 5.00					
CN(O)C1C(CO)OC(n2ccc(N)nc2=O)[C@H]1F (stereo partly drawn) [Compound 58 (Series 2)]	7.4 µM				40.2 µM	~106 µM	7.05		6.19	potent inhibitors	potent inhibitors	> 100 µM		
Cc1cn(C2CC(CI)C(CO)O2)c(=O)[nH]c1=O (stereo not drawn) [Compound 5 (Series 1)]	> 100 µM					> 100 µM	< 4.00		< 5.00					
Nc1ncnc2c1ncn2C1OC(CO)C(CO)C1F (stereo not drawn) [Compound 23 (Series 2)]	> 100 µM				> 100 µM	> 100 µM	4.02		5.98			> 100 µM		
CN(O)C1C(CO)OC(n2cc(F)c(=O)[nH]c2=O)C1F (stereo not drawn) [Compound 60 (Series 2)]	> 100 µM				> 100 µM	> 100 µM	< 4.00		< 5.00					
Nc1nc(=O)n(C2OC(CO)C(CO)C2F)cc1F (stereo not drawn) [Compound 10 (Series 2)]	> 100 µM				> 100 µM	> 100 µM	5.48		6.89	potent inhibitors	potent inhibitors	> 100 µM		
CNC1C(CO)OC(n2ccc(N)nc2=O)C1F (stereo not drawn) [Compound 70 (Series 2)]	> 100 µM				109 µM	> 100 µM	5.62		≥ 5.00	potent inhibitors	potent inhibitors			
CNC1C(CO)OC(n2cc(C)c(=O)[nH]c2=O)C1F (stereo not drawn) [Compound 68 (Series 2)]	> 100 µM				> 100 µM	> 100 µM	< 4.00		< 5.00					
CN(O)C1C(CO)OC(n2ccc(N)nc2=O)C1F (stereo not drawn) [Compound 59 (Series 2)]	> 100 µM				65.3 µM	> 100 µM	6.31		≥ 5.00	potent inhibitors	potent inhibitors	> 100 µM		
Cc1cn(C2CC(CO)N(C)O2)c(=O)[nH]c1=O (stereo not drawn) [Compound 6 (Series 2)]	> 100 µM				> 100 µM	> 100 µM	< 4.00		< 5.00					
